Measurements reported in PubChem BioAssay (NCI).
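Exposure lasted 48 hours, with cells grown in 96-well plates and compounds tested at five concentrations. TGI: total growth inhibition.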

Columns and labels:
Experiment in all cases: NCI tumour cell line growth inhibition, 48 h
[1] = tested on: 786-0 renal
[2] = tested on: A498 renal
[3] = tested on: A549 NSCLC
[4] = tested on: ACHN renal
[5] = tested on: BT-549 breast
[6] = tested on: CAKI-1 renal
[7] = tested on: CCRF-CEM leukemia
[8] = tested on: COLO 205 colon
[9] = tested on: DU-145 prostate
[10] = tested on: EKVX NSCLC
[11] = tested on: HCC-2998 colon
[12] = tested on: HCT-116 colon
[13] = tested on: HCT-15 colon
[14] = tested on: HL-60(TB) leukemia
[15] = tested on: HOP-62 NSCLC
[16] = tested on: HOP-92 NSCLC
[17] = tested on: HS 578T breast
[18] = tested on: HT29 colon
[19] = tested on: IGROV1 ovarian
[20] = tested on: K-562 leukemia
[21] = tested on: KM12 colon
[22] = tested on: LOX IMVI melanoma
[23] = tested on: M14 melanoma
[24] = tested on: MALME-3M melanoma
[25] = tested on: MCF7 breast
[26] = tested on: MDA-MB-231 breast
[27] = tested on: MDA-MB-435
[28] = tested on: MDA-N
[29] = tested on: MOLT-4 leukemia
[30] = tested on: NCI-H226 lung
[31] = tested on: NCI-H23 lung
[32] = tested on: NCI-H460 lung
[33] = tested on: NCI/ADR-RES ovarian
[34] = tested on: OVCAR-3 ovarian
[35] = tested on: OVCAR-4 ovarian
[36] = tested on: OVCAR-5 ovarian
[37] = tested on: OVCAR-8 ovarian
[38] = tested on: PC-3 prostate
[39] = tested on: RPMI-8226 leukemia
[40] = tested on: RXF 393 renal
[41] = tested on: SF-268 CNS
[42] = tested on: SF-295 CNS
[43] = tested on: SK-MEL-2 melanoma
[44] = tested on: SK-MEL-28 melanoma
[45] = tested on: SK-MEL-5 melanoma
[46] = tested on: SK-OV-3 ovarian
[47] = tested on: SN12C renal
[48] = tested on: SNB-19 CNS
[49] = tested on: SNB-75 CNS
[50] = tested on: SW-620 colon
[51] = tested on: T-47D breast
[52] = tested on: TK-10 renal
[53] = tested on: U251 CNS
[54] = tested on: UACC-257 melanoma
[55] = tested on: UACC-62 melanoma
[56] = tested on: UO-31 renal
[57] = tested on: NCI-H522 lung
[58] = tested on: SF-539 CNS
[59] = tested on: SR leukemia

With `COc1ccc2nc(N/N=C/c3sccc3C)cc(C)c2c1` the TGI [1] was 27.6 µM, the TGI [2] was 26.9 µM and the TGI [3] was 56.9 µM. The TGI [4] was 56.2 µM, the TGI [5] was 32.2 µM and the TGI [6] was > 100 µM. It also gave a TGI [7] of 67 µM, a TGI [8] of 32.7 µM and a TGI [9] of 44.5 µM. For the same compound, the TGI [10] was 55.4 µM, the TGI [11] was 41.2 µM and the TGI [12] was 23.8 µM. The TGI [13] was 30.5 µM, the TGI [14] was 47.6 µM and the TGI [15] was 36.3 µM. It also gave a TGI [16] of 26.4 µM, a TGI [17] of 55.3 µM and a TGI [18] of 24 µM. For the same compound, the TGI [19] was 32.4 µM, the TGI [20] was > 100 µM and the TGI [21] was 38.3 µM. The TGI [22] was 32.9 µM, the TGI [23] was 25.3 µM and the TGI [24] was 31.3 µM. For the same compound, the TGI [25] was 55.5 µM, the TGI [26] was 16.1 µM and the TGI [27] was 43.9 µM. The TGI [28] was 39.4 µM, the TGI [29] was 50.7 µM and the TGI [30] was 42.6 µM. For the same compound, the TGI [31] was 28.9 µM, the TGI [32] was 28.2 µM and the TGI [33] was 55.1 µM. For the same compound, the TGI [34] was 45.8 µM, the TGI [35] was 99.5 µM and the TGI [36] was 61.3 µM. For the same compound, the TGI [37] was > 100 µM, the TGI [38] was 38.7 µM and the TGI [39] was 45.3 µM. The TGI [40] was 62.6 µM, the TGI [41] was 47.8 µM and the TGI [42] was 21.7 µM. It also gave a TGI [43] of 63.1 µM, a TGI [44] of 50.5 µM and a TGI [45] of 25.5 µM. For the same compound, the TGI [46] was 32.1 µM, the TGI [47] was 48.2 µM and the TGI [48] was > 100 µM. The TGI [49] was 37.1 µM, the TGI [50] was 65 µM and the TGI [51] was > 100 µM. It also gave a TGI [52] of 28.1 µM, a TGI [53] of 73.5 µM and a TGI [54] of 32.3 µM. The TGI [55] was 27.1 µM and the TGI [56] was 65.1 µM.

With `Nc1ccccc1CCN1CCN(CCCc2ccccc2)CC1` the TGI [1] was > 100 µM, the TGI [2] was > 100 µM and the TGI [3] was > 100 µM. For the same compound, the TGI [4] was > 100 µM, the TGI [5] was > 100 µM and the TGI [6] was > 100 µM. For the same compound, the TGI [7] was > 100 µM, the TGI [8] was 55 µM and the TGI [9] was > 100 µM. The TGI [10] was > 100 µM, the TGI [11] was 39 µM and the TGI [12] was > 100 µM. For the same compound, the TGI [13] was > 100 µM, the TGI [14] was > 100 µM and the TGI [15] was > 100 µM. The TGI [17] was > 100 µM, the TGI [18] was > 100 µM and the TGI [19] was > 100 µM. The TGI [20] was > 100 µM, the TGI [21] was > 100 µM and the TGI [22] was > 100 µM. The TGI [23] was 35.4 µM, the TGI [24] was 31.6 µM and the TGI [25] was > 100 µM. For the same compound, the TGI [26] was > 100 µM, the TGI [27] was > 100 µM and the TGI [28] was > 100 µM. The TGI [29] was > 100 µM, the TGI [30] was > 100 µM and the TGI [31] was > 100 µM. The TGI [32] was > 100 µM, the TGI [57] was > 100 µM and the TGI [33] was > 100 µM. For the same compound, the TGI [34] was > 100 µM, the TGI [35] was > 100 µM and the TGI [36] was > 100 µM. The TGI [37] was > 100 µM, the TGI [38] was > 100 µM and the TGI [39] was 75.5 µM. The TGI [41] was > 100 µM, the TGI [42] was > 100 µM and the TGI [58] was > 100 µM. For the same compound, the TGI [43] was > 100 µM, the TGI [44] was > 100 µM and the TGI [45] was 32.6 µM. The TGI [46] was > 100 µM, the TGI [47] was > 100 µM and the TGI [48] was > 100 µM. The TGI [59] was > 100 µM, the TGI [50] was > 100 µM and the TGI [51] was 53.3 µM. The TGI [52] was > 100 µM, the TGI [53] was > 100 µM and the TGI [54] was > 100 µM. For the same compound, the TGI [55] was > 100 µM and the TGI [56] was > 100 µM.

With `COc1ccc(Cn2c3c(cc(OC(C)=O)c2=O)Cc2ccccc2-3)cc1` the TGI [1] was 12.8 µM, the TGI [3] was > 50 µM and the TGI [4] was 32 µM. For the same compound, the TGI [5] was 35.1 µM, the TGI [6] was 35.7 µM and the TGI [7] was > 50 µM. For the same compound, the TGI [8] was > 50 µM, the TGI [9] was > 50 µM and the TGI [10] was 28.3 µM. For the same compound, the TGI [11] was 9.96 µM, the TGI [12] was 13.2 µM and the TGI [13] was 39 µM. The TGI [14] was 20.6 µM, the TGI [15] was > 50 µM and the TGI [16] was 34.1 µM. The TGI [17] was > 50 µM, the TGI [18] was 25.2 µM and the TGI [19] was 20.3 µM. It also gave a TGI [20] of 34 µM, a TGI [21] of 35.9 µM and a TGI [22] of 19.7 µM. For the same compound, the TGI [23] was 17.9 µM, the TGI [24] was 32.2 µM and the TGI [25] was > 50 µM. The TGI [26] was > 50 µM, the TGI [27] was > 50 µM and the TGI [28] was > 50 µM. For the same compound, the TGI [29] was 28.8 µM, the TGI [30] was 41.1 µM and the TGI [31] was 28.5 µM. For the same compound, the TGI [32] was 15 µM, the TGI [57] was 15.1 µM and the TGI [33] was 8.53 µM. For the same compound, the TGI [34] was > 50 µM, the TGI [35] was > 50 µM and the TGI [36] was > 50 µM. The TGI [37] was 20.3 µM, the TGI [38] was 30.2 µM and the TGI [40] was 42.6 µM. For the same compound, the TGI [41] was 33.8 µM, the TGI [42] was > 50 µM and the TGI [58] was 28.4 µM. For the same compound, the TGI [43] was 23.9 µM, the TGI [44] was > 50 µM and the TGI [45] was 41.6 µM. For the same compound, the TGI [46] was > 50 µM, the TGI [47] was 20.8 µM and the TGI [48] was > 50 µM. For the same compound, the TGI [49] was 43.6 µM, the TGI [59] was 28 µM and the TGI [50] was 22.4 µM. The TGI [51] was > 50 µM, the TGI [52] was 34 µM and the TGI [53] was 26.3 µM. For the same compound, the TGI [54] was 9.87 µM, the TGI [55] was 22.3 µM and the TGI [56] was 15.9 µM.
